Test system: Isolated mouse adult cardiomyocytes
Test: Hypoxia and hypoxia-reoxygenation induced cardiomyocyte death, LDH release
Assay type: cell-based
Settings: pretreated with 10 μM
Method: FIG. 4. A pharmacological inhibitor of Epac1, R-CE3F4 prevents hypoxia and hypoxia-reoxygenation induced cardiomyocyte death. Isolated mouse adult cardiomyocytes, pretreated or not with either 10 μM R-CE3F4 or its analogue ΔCHO (10 μM) were exposed to hypoxia (HX) for 4 h followed by a 2 h of reoxygenation period (HX+R). Cell death was determined by LDH release. Results are expressed as means±S.E.M. The bar graph represents the average of 5 independent experiments performed in triplicate. Statistical significance was determined by 2-way ANOVA. * P<0.05 compared with indicated values.
Myocardial infarction was induced in wild-type (WT) versus Epac1^−/− littermates by left anterior descending coronary artery (LAD) ligation for 24 h. Ischemia/Reperfusion was induced by the left anterior descending coronary artery occlusion for 45 min and followed by 24 h of reperfusion. The area at risk (AAR) and infarct size were evaluated by Evans blue and TTC staining, respectively. […] Isolated mouse adult cardiomyocytes pretreated with either R-CE3F4 or (ΔCHO) were exposed to hypoxia (HX) for 4 h followed by a 2 h of reoxygenation period (HX+R). Cell death was determined by LDH release.

Structure (SMILES): C[C@@H]1CCc2c(cc(Br)c(F)c2Br)N1C=O [R-CE3F4]
- HX+R-induced cardiomyocyte death (LDH release) (hypoxia 4 h followed by 2 h reoxygenation (HX+R)): significantly prevented
- HX-induced cardiomyocyte death (LDH release) (hypoxia (HX) for 4 h): significantly prevented
